Patent publication US20250236614A1, “BICYCLIC TETRAHYDROAZEPINE DERIVATIVES” (Hoffmann-La Roche Inc., priority 2022, published 2025)

Key:
[1] = molecular target: T1, hDGKzeta(1-928)-N-His (DGKZ) (Homo sapiens, UniProt Q13574); assay: In vitro DGK inhibition assay (ADP-Glo, in house), DGK zeta; assay type: biochemical; conditions: isomer A; 2 nM DGK ζ, 50 μM ATP, 125 μM DLG in liposomes, 1 hour reaction; read-out: DGKzeta ADP Glo assay IC50
T1 construct: hDGKzeta(1-928)-N-His; His (N)
Experimental: (§1) DGK α and ζ kinase use ATP to phosphorylate the substrate 1,2-dilauroyl-sn-glycerol (DLG, incorporated in the liposomes). ATP is converted to ADP as a result of this enzymatic reaction.
(§2) After the kinase reaction, an ATP-depletion reagent is added to terminate the kinase reaction and deplete any remaining ATP, leaving only ADP. Second, a detection reagent is added to simultaneously convert ADP to ATP and allow the newly synthesized ATP to be converted to light using a coupled luciferase/luciferin reaction.
(§3) Full length DGKA and Z were expressed in Sf21 insect cells by infecting the cells with the baculovirus stock at MOI of 2. Purification of both enzymes was performed as previously described by Takahashi et al., PeerJ, 2018 (Takahashi, D.; Sakane, F. Expression and purification of human diacylglycerolkinase alpha from baculovirus-infected insect cells for structural studies. PeerJ2018, 6, No. e5449).
(§4) A concentrated liposome solution was prepared in assay buffer without DTT and BSA: 2 mM of DLG in 21 mM of total liposome (2 mM DLG/8 mM PS/11 mM PC). The reaction mixtures contain the assay buffer with a final DLG concentration of 125 μM ATP concentrations of 25 μM (for DGKA assay) or 50 μM (for DGKZ assay). The reactions were started by addition of DGK α and ζ kinases at 4 nM and 2 nM final concentrations, respectively. After 1 hour reaction, the amount of ADP formed was detected with the ADP-Glo kinase assay (Promega) according to the manufacturer instructions. Compounds were added in 11I-points dose response, starting at 10 mM, 1:3 dilutions, with a final DMSO concentration of […]. The multidrop combi was used as a liquid handler and luminescence was read with 0.5 s by the envision reader (PE).

[2] = molecular target: T2, hDGKalpha(1-735)-N-His (DGKA) (Homo sapiens, UniProt P23743); assay: In vitro DGK inhibition assay (ADP-Glo, in house), DGK alpha; assay type: biochemical; conditions: isomer A; 4 nM DGK α, 25 μM ATP, 125 μM DLG in liposomes, 1 hour reaction; read-out: DGKalpha ADP Glo assay IC50
T2 construct: hDGKalpha(1-735)-N-His; His (N)
T2 sequence (P23743 whole entry): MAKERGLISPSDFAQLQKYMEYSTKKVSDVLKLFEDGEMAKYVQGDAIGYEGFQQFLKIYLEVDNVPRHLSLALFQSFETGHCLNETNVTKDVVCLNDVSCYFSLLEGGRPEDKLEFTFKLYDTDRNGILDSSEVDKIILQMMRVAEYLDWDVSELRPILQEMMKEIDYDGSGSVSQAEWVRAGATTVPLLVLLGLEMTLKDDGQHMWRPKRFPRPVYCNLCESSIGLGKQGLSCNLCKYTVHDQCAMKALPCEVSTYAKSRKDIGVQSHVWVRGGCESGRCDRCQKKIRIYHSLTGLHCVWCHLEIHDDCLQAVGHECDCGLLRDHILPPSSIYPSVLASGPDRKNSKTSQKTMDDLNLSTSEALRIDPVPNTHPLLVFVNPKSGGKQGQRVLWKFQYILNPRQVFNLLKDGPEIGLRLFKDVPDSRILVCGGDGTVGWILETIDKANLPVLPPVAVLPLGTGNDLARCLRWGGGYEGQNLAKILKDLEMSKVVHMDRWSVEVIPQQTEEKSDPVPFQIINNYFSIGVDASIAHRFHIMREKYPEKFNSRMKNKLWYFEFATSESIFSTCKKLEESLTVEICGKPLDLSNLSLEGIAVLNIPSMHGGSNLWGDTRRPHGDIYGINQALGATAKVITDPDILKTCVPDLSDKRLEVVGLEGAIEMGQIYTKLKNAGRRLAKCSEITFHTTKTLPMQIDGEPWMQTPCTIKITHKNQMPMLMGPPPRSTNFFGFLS
Experimental: as §1, §2, §3, §4

primary human T-cells = assay: T-cell proliferation assay (CellTiter-Glo); assay type: cell-based; conditions: Homo sapiens, T-cell, 120 h, isomer A; for EC50: CD3 antibody-stimulated T-cells, CellTiter-Glo after 5 days, read-out: Tcell Proliferation CD3 EC50; for Emax: CD3 condition, 5 days, 20 μM reference compound A1 = 100%, DMSO neutral control, read-out: Emax proliferation (% activation)
Experimental: Expanded primary human T-cells are thawed and cultured in RPMI 1640 (Gibco, #61870-010)+5% human serum (HS, Sigma, #H3667)+1 mM Sodium Pyruvate (Gibco, #11360-039)+50 μM 2-mercaptoethanol (Gibco, #31350-010) and 1× Pen-Strep (Life Technologies, #15140122) medium at density of 2 Mio/ml for 3 hours in 5% CO2, 37° C. and 95% humidity. For coating of plates, PBS++ only or PBS++ with CD3 antibody (concentration depending on donor and determined by CD3 titrations) is added 100 μl/well to Poly-D Lysine coated 96-well plates. Plates are sealed and incubated at room temperature for 3 hours on a table-top rocking platform. After incubation, plates are washed once with PBS−− and filled with 40 μl/well culture medium only. Compounds are then added (see next section) to medium only plates. After 3 hours of culturing the T-cells, cells are filtered through a cell strainer (Miltenyi Biotech, #130-041-407), counted again and concentration is adjusted to 1.25 Mio/ml.
Cells are then seeded 80 μl/well to the 40 μl/well including dispensed compounds according to plate layout. By adding cells, compounds are further diluted 1:3, and resulting in 100k cells/120 μl/well. After 48 hours 40 μl of supernatant is collected carefully from the top while not disturbing the cells. Cells are assessed for proliferation 5 days later by measuring […] using CellTiterGlo (Promega).
Compounds were added in a 5 or 6 pt dose response with the Tecan D300e Digital Dispenser, all conditions 3 times more concentrated than the end-concentration, since cells are added afterwards (80 μl cells to 40 μl prepared medium with treatment). The DR was starting at 20 μM or 10 μM final top concentration and a dilution factor of 3.333. The positive control was the reference compound A1 that was added in a dose response as well, additionally to 3 wells of only 20 μM representing the positive stimulator control. All wells were normalized with DMSO to a final concentration of 0.6% (0.2% end-concentration).
After 5 days, for detection of ATP which is directly proportional to the number of cells present per well, the CellTiter-Glo® 2.0 Reagent is used. After visual control for toxicity or precipitations of the tested compounds, the plates are equilibrated to room temperature for 45 minutes. CellTiter-Glo® 2.0 Reagent is equilibrated to room temperature as well. After equilibration, an equal amount of CellTiter-Glo reagent is added to the cells (80 μl/well) with an electronic multichannel pipette. Plates are placed on a rocking platform for 15 minutes at room temperature. After incubation, the bottom of the plates is sealed with backing tape. Luminescence is measured with PHERAstar FSX (interval time 0.5 sec, gain 3000, focal height 15 mm) and exported as CSV file for analysis in Genedata screener.
CD3 and PBS plates were analysed separately in Genedata Screener using Roche Normalization PCT_POS_CTRL with DMSO set as Neutral Control and 20 μM of the reference compound A1 set as Stimulator Control/100%.
For CD3 conditions EC50 and Emax of the fitted sigmoidal curve were reported. If no curve could be fitted, the EC50 was reported as blank field and the Emax was based on individual data points. […] Compounds which activate unstimulated cells (see IL2 measurements) or compounds which negatively affected viability were flagged.

T1 sequence (Q13574 whole entry): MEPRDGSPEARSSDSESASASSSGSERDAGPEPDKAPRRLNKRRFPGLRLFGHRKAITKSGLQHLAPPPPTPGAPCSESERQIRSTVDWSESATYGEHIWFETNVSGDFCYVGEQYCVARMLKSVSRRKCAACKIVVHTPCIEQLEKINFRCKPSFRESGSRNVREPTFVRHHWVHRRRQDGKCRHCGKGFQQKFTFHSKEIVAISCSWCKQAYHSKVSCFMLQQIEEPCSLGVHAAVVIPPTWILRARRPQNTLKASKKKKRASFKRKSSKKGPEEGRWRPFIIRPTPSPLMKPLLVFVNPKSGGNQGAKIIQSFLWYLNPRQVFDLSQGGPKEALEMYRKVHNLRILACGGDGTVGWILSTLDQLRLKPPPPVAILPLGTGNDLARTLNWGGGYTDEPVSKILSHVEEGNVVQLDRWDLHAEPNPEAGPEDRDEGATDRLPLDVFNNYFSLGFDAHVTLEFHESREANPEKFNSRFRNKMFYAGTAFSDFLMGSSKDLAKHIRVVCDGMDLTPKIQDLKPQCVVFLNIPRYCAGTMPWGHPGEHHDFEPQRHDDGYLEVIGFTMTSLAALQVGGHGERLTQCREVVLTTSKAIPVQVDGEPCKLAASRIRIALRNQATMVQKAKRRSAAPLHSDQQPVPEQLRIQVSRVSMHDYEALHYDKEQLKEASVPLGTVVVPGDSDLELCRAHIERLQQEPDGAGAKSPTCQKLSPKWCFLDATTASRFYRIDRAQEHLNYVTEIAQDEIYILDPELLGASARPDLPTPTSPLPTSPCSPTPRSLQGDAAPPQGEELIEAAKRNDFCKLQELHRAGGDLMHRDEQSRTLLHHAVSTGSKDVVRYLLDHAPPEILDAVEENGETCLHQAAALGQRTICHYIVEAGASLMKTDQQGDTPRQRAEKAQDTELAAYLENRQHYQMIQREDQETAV

Compound	IC50 [1] [µM]	IC50 [2] [µM]	EC50 (primary human T-cells) [µM]	Emax (primary human T-cells) [%]
N[C@@H]1CC(F)(F)c2cc(F)c(-c3nnc(N4CCCC4)o3)cc2N(Cc2ccc(-n3cnc(C(F)(F)F)n3)cc2)C1=O (single isomer, unassigned) [Example 21]	11.8	10.9	> 10	43
N[C@@H]1CC(F)(F)c2cc(F)c(-c3nnc(N4CCC(F)(F)C4)o3)cc2N(Cc2ccc(-n3cnc(C(F)(F)F)n3)cc2)C1=O (single isomer, unassigned) [Example 22]	17.8	10.6	2.11	62
CC(C)(c1nnc(-c2cc3c(cc2F)C(F)(F)C[C@@H](N)C(=O)N3Cc2ccc(-n3cnc(C(F)(F)F)n3)cc2)o1)S(C)(=O)=O (single isomer, unassigned) [Example 23]	15.4	14.1	> 10	98
CC(C)(C#N)c1nnc(-c2cc3c(cc2F)C(F)(F)C[C@@H](N)C(=O)N3Cc2ccc(-c3ccc(OC(F)(F)F)cn3)cc2)o1 (single isomer, unassigned) [Example 24]	2.4	1.86	0.161	129
CC(C)(c1nnc(-c2cc3c(cc2F)C(F)(F)C[C@@H](N)C(=O)N3Cc2ccc(-c3ccc(OC(F)(F)F)cn3)cc2)o1)S(C)(=O)=O (single isomer, unassigned) [Example 26]	8.82	0.425	0.95	155
CC(C)(C#N)c1nnc(-c2cc3c(cc2F)C(F)(F)C[C@@H](N)C(=O)N3Cc2ccc(-c3cc(C(F)(F)F)ccn3)cc2)o1 (single isomer, unassigned) [Example 27]	1.82	24.6	0.599	79
CC(C)(C#N)c1nnc(-c2cc3c(cc2F)C(F)(F)C[C@@H](N)C(=O)N3Cc2ccc(-c3ccc(C(F)(F)F)cc3)nc2)o1 (single isomer, unassigned) [Example 28]	11.2	31.7	0.978	96
CC(C)(c1nnc(-c2cc3c(cc2F)C(F)(F)C[C@@H](N)C(=O)N3Cc2ccc(-n3cc(C(F)(F)F)cn3)cc2)o1)S(C)(=O)=O (single isomer, unassigned) [Example 29]	13.9	0.551	0.0917	93
CC(C)(C#N)c1nnc(-c2cc3c(cc2F)C(F)(F)C[C@@H](N)C(=O)N3Cc2ccc(-n3ccc(C(F)(F)F)n3)cc2)o1 (single isomer, unassigned) [Example 30]	10.2	26.4	0.589	94
CC(C)(c1nnc(-c2cc3c(cc2F)C(F)(F)C[C@@H](N)C(=O)N3Cc2ccc(-c3ccc(C(F)(F)F)cc3)cc2)o1)S(C)(=O)=O (single isomer, unassigned) [Example 32]	33.8	51.3	2.34	81
COCCN1CC(c2nnc(-c3cc4c(cc3F)C(F)(F)C[C@@H](N)C(=O)N4Cc3ccc(-c4ccc(C(F)(F)F)cn4)cc3)o2)CC(F)(F)C1 (single isomer, unassigned) [Example 34]	11.1	> 60	1.22	75
COC(=O)N1CC2CC(c3nnc(-c4cc5c(cc4F)C(F)(F)C[C@@H](N)C(=O)N5Cc4ccc(-c5ccc(C(F)(F)F)cn5)cc4)o3)(C2)C1 (single isomer, unassigned) [Example 35]	> 19	> 19	0.124	128
COC(=O)N1CC2CC(c3nnc(-c4cc5c(cc4F)C(F)(F)C[C@@H](N)C(=O)N5Cc4ccc(Cl)cc4)o3)(C2)C1 (single isomer, unassigned) [Example 36]	5.92	55.2	0.168	82
CC(F)(F)c1ccc(-c2ccc(CN3C(=O)[C@H](N)CC(F)(F)c4cc(F)c(-c5nnc(C(C)(C)C#N)o5)cc43)cc2)nc1 (single isomer, unassigned) [Example 37]	2.85	11.2	0.215	138
COc1ccc(-c2ccc(CN3C(=O)[C@H](N)CC(F)(F)c4cc(F)c(-c5nnc(C(C)(C)C#N)o5)cc43)cc2)nc1 (single isomer, unassigned) [Example 38]	5.8	≥ 60	1.02	105
COc1ccc(-c2ccc(CN3C(=O)[C@H](N)CC(F)(F)c4cc(F)c(-c5nnc(C(C)(C)S(C)(=O)=O)o5)cc43)cc2)nc1 (single isomer, unassigned) [Example 39]	38.8	44.4	1.42	98
CC(C)(C#N)c1nnc(-c2cc3c(cc2F)C(F)(F)C[C@@H](N)C(=O)N3Cc2ccc(-c3ccc(C(F)F)cn3)cc2)o1 (single isomer, unassigned) [Example 40]	2.5	15.3	0.655	99
CC(C)(C#N)c1nnc(-c2cc3c(cc2F)C(F)(F)C[C@@H](N)C(=O)N3Cc2ccc(-c3ccc(OC(F)F)cn3)cc2)o1 (single isomer, unassigned) [Example 41]	8.22	24	0.196	113
COC(=O)N1CC2CC(c3nnc(-c4cc5c(cc4F)C(F)(F)CC(N)C(=O)N5Cc4ccc(-c5noc(C(F)(F)F)n5)cc4)o3)(C2)C1 (single isomer, unassigned) [Example 42]	2.22	4.32	1.26	117
CC(C)(C)c1nnc(-c2cc3c(cc2F)C(F)(F)CC(N)C(=O)N3Cc2ccc(OC(F)(F)F)cc2)o1 (centres unmarked) [Example 1, 3-amino-8-(5-tert-butyl-1,3,4-oxadiazol-2-yl)-5,5,7-trifluoro-1-[[4-(trifluoromethoxy)phenyl]methyl]-3,4-dihydro-1-benzazepin-2-one]	19.9	33.9	2.59	74
